Tested on: lung gene expression
Assay: RNA sequencing of lung tissue (BLM/EL244 vs BLM)
Format: in vivo, mouse
Experimental: RNA quality was assessed using an Agilent TapeStation 4150 with the High Sensitivity […] ScreenTape (Agilent), according to the manufacturer’s protocols. For library preparation, the QuantSeq 3’mRNA-Seq Library Prep Kit (Lexogen) was used according to manufacturer’s instructions. Briefly, 500 ng of RNA from each sample was used for first-strand synthesis, followed by RNA template removal, and second-strand synthesis initiated by random primers. In-line barcodes were introduced at this step, and this was followed by magnetic bead-based purification. The resulting libraries were amplified for 15 cycles and re-purified, with quantity and quality assessed on a Qubit 4 Fluorometer with the Invitrogen Qubit dsDNA HS Assay and an Agilent Tapestation 4150 with the High Sensitivity D1000 assay kit, respectively. The quantified libraries were pooled equimolarly; 50ng of total library mix was used for Adapter Conversion PCR Amplification using the Universal Library Conversion Kit (App-A), Version: V1.0 (MGI Tech Co., Ltd.), according to the manufacturer’s instructions.
The quantity and quality of the purified adapter conversion PCR (AC-PCR) product were evaluated on a Qubit 4 Fluorometer with the Invitrogen Qubit dsDNA HS Assay and on an Agilent Tapestation 4150 with the High Sensitivity D1000 assay kit, respectively. This was followed by DNA denaturation, Single-Strand Circularisation, Enzymatic Digestion, Enzymatic Digestion Product Cleanup and Quality Control steps on 1 pmol of AC-PCR product, according to the Universal Library Conversion Kit (App-A) User Manual (Version: A3).
Finally, 60 fmol of ssCirDNA were used for DNB preparation and sequencing on a DNBSEQ-G400 platform at the BSRC Alexander Fleming Genomics Facility, using a G400 App-A FCS SE100 High-throughput Sequencing Set (MGI Tech Co., Ltd.), according to the manufacturer’s instructions.
Alignment of the FASTQ files was performed against the mouse genome build mm10 using a custom Bash script.[143] Read counting on the 3′ UTRs and differential expression analysis were conducted using the metaseqR2 bioconductor package.[144] Genes corresponding to the following biotypes were excluded: polymorphic_pseudogene, processed_transcript, pseudogene, IG_V_pseudogene, misc_RNA, IG_C_gene, IG_J_gene, IG_D_gene, IG_LV_gene, TR_V_gene, TR_V_pseudogene, TEC, and processed_pseudogene. Gene counts were normalized with DESEQ[145] through metaseqR2. Genes with more than 10 counts in at least 50% of the samples were kept for further processing. For differential expression analysis, the PANDORA algorithm[146] was used to estimate a meta p-value integrating the results from the DESEQ, DESEQ2,[147] edgeR,[148] limma,[149] NBPSeq,[150] and NOISeq[151] algorithms. All additional parameters were set to default values.
Pathway enrichment analysis was performed for the Gene Ontology Biological process (BP) and Molecular Function (MF) terms through GeneCodis 4.[152] The volcano plots, scatterplots, Venn diagrams, and dot plots were generated using the ggplot2 Bioconductor package.

[1] = lung tissue of BLM-treated mice, BLM/EL244 vs BLM

## O=C1NC(=O)C(Cc2ccc(OCCC3CCN(C(=O)OCc4cc(Cl)cc(Cl)c4)CC3)cc2)S1 (stereo not shown) [EL244, 3,5-dichlorobenzyl 4-(2-(4-((2,4-dioxothiazolidin-5-yl)methyl)phenoxy)ethyl)piperidine-1-carboxylate]
DEG Rora, nFC: normalised fold change
  Rora log2 nFC BLM/EL244 vs BLM: 0.80
DEG Rrm2
  log2 nFC BLM/EL244 vs BLM: -2.56
DEG Ryr2, nFC: normalised fold change
  Ryr2 log2 nFC BLM/EL244 vs BLM: 2.14
DEG S1pr4, nFC: normalised fold change
  S1pr4 log2 nFC BLM/EL244 vs BLM: 0.94
DEG S1pr5, nFC: normalised fold change
  S1pr5 log2 nFC BLM/EL244 vs BLM: 1.64
DEG S100a4
  log2 nFC BLM/EL244 vs BLM: -1.26
DEG S100a8, nFC: normalised fold change
  S100a8 log2 nFC BLM/EL244 vs BLM: 1.52
DEG S100a9, nFC: normalised fold change
  S100a9 log2 nFC BLM/EL244 vs BLM: 2.11
DEG S100a14
  log2 nFC BLM/EL244 vs BLM: -1.28
DEG Scn3a, nFC: normalised fold change
  Scn3a log2 nFC BLM/EL244 vs BLM: 0.75
DEG Scube2, nFC: normalised fold change
  Scube2 log2 nFC BLM/EL244 vs BLM: 0.74
DEG Sec14l3, nFC: normalised fold change
  Sec14l3 log2 nFC BLM/EL244 vs BLM: 0.69
DEG Sec14l4, nFC: normalised fold change
  Sec14l4 log2 nFC BLM/EL244 vs BLM: 0.77
DEG Sell, nFC: normalised fold change
  Sell log2 nFC BLM/EL244 vs BLM: 1.03
DEG Sema3g, nFC: normalised fold change
  Sema3g log2 nFC BLM/EL244 vs BLM: 0.78
DEG Serpina3g
  log2 nFC BLM/EL244 vs BLM: -1.31
DEG Sftpa1, nFC: normalised fold change
  Sftpa1 log2 nFC BLM/EL244 vs BLM: 0.70
DEG Sgip1, nFC: normalised fold change
  Sgip1 log2 nFC BLM/EL244 vs BLM: 0.90
DEG Sgms1, nFC: normalised fold change
  Sgms1 log2 nFC BLM/EL244 vs BLM: 0.71
DEG Ska1
  log2 nFC BLM/EL244 vs BLM: -2.52
DEG Slamf8
  log2 nFC BLM/EL244 vs BLM: -1.24
DEG Slc2a4rg-ps, nFC: normalised fold change
  Slc2a4rg-ps log2 nFC BLM/EL244 vs BLM: 0.85
DEG Slc7a10, nFC: normalised fold change
  Slc7a10 log2 nFC BLM/EL244 vs BLM: 0.97
DEG Slc7a11
  log2 nFC BLM/EL244 vs BLM: -1.50
DEG Slc16a11, nFC: normalised fold change
  Slc16a11 log2 nFC BLM/EL244 vs BLM: 0.79
DEG Slc38a4, nFC: normalised fold change
  Slc38a4 log2 nFC BLM/EL244 vs BLM: 1.12
DEG Slc43a3, nFC: normalised fold change
  Slc43a3 log2 nFC BLM/EL244 vs BLM: 0.73
DEG Sln, nFC: normalised fold change
  Sln log2 nFC BLM/EL244 vs BLM: 2.01
DEG Smad6, nFC: normalised fold change
  Smad6 log2 nFC BLM/EL244 vs BLM: 1.18
DEG Smpx, nFC: normalised fold change
  Smpx log2 nFC BLM/EL244 vs BLM: 2.34
DEG Smyd1, nFC: normalised fold change
  Smyd1 log2 nFC BLM/EL244 vs BLM: 1.73
DEG Snhg11, nFC: normalised fold change
  Snhg11 log2 nFC BLM/EL244 vs BLM: 1.40
DEG Sntb1, nFC: normalised fold change
  Sntb1 log2 nFC BLM/EL244 vs BLM: 0.72
DEG Snx21, nFC: normalised fold change
  Snx21 log2 nFC BLM/EL244 vs BLM: 1.15
DEG Sorbs1, nFC: normalised fold change
  Sorbs1 log2 nFC BLM/EL244 vs BLM: 0.70
DEG Sorbs3, nFC: normalised fold change
  Sorbs3 log2 nFC BLM/EL244 vs BLM: 0.80
DEG Sox9
  log2 nFC BLM/EL244 vs BLM: -1.42
DEG Spp1
  log2 nFC BLM/EL244 vs BLM: -1.50
DEG Srcin1, nFC: normalised fold change
  Srcin1 log2 nFC BLM/EL244 vs BLM: 0.91
DEG Syne1, nFC: normalised fold change
  Syne1 log2 nFC BLM/EL244 vs BLM: 0.70
DEG Synm, nFC: normalised fold change
  Synm log2 nFC BLM/EL244 vs BLM: 0.84
DEG Tacc3
  log2 nFC BLM/EL244 vs BLM: -1.27
DEG Tbata, nFC: normalised fold change
  Tbata log2 nFC BLM/EL244 vs BLM: 1.72
DEG Tbkbp1, nFC: normalised fold change
  Tbkbp1 log2 nFC BLM/EL244 vs BLM: 0.71
DEG Tcap, nFC: normalised fold change
  Tcap log2 nFC BLM/EL244 vs BLM: 1.73
DEG Tcf19
  log2 nFC BLM/EL244 vs BLM: -1.42
DEG Tex11, nFC: normalised fold change
  Tex11 log2 nFC BLM/EL244 vs BLM: 1.83
DEG Tgfbr3, nFC: normalised fold change
  Tgfbr3 log2 nFC BLM/EL244 vs BLM: 0.83
DEG Tmem100, nFC: normalised fold change
  Tmem100 log2 nFC BLM/EL244 vs BLM: 0.82
DEG Tmem182, nFC: normalised fold change
  Tmem182 log2 nFC BLM/EL244 vs BLM: 2.26
DEG Tmem132d, nFC: normalised fold change
  Tmem132d log2 nFC BLM/EL244 vs BLM: 2.38
DEG Tnip3
  log2 nFC BLM/EL244 vs BLM: -1.47
DEG Tnnc1, nFC: normalised fold change
  Tnnc1 log2 nFC BLM/EL244 vs BLM: 2.18
DEG Tnni3, nFC: normalised fold change
  Tnni3 log2 nFC BLM/EL244 vs BLM: 2.31
DEG Tnnt2, nFC: normalised fold change
  Tnnt2 log2 nFC BLM/EL244 vs BLM: 1.77
DEG Tns2, nFC: normalised fold change
  Tns2 log2 nFC BLM/EL244 vs BLM: 0.77
DEG Tppp3, nFC: normalised fold change
  Tppp3 log2 nFC BLM/EL244 vs BLM: 0.77
DEG Trem2
  log2 nFC BLM/EL244 vs BLM: -1.42
DEG Trip13
  log2 nFC BLM/EL244 vs BLM: -1.42
DEG Ttn, nFC: normalised fold change
  Ttn log2 nFC BLM/EL244 vs BLM: 2.53
DEG Unc45b, nFC: normalised fold change
  Unc45b log2 nFC BLM/EL244 vs BLM: 0.77
DEG Upk3b, nFC: normalised fold change
  Upk3b log2 nFC BLM/EL244 vs BLM: 1.53
DEG Vpreb3, nFC: normalised fold change
  Vpreb3 log2 nFC BLM/EL244 vs BLM: 0.71
DEG Vwa3b, nFC: normalised fold change
  Vwa3b log2 nFC BLM/EL244 vs BLM: 0.98
DEG Wfdc17
  log2 nFC BLM/EL244 vs BLM: -1.30
DEG Xndc1, nFC: normalised fold change
  Xndc1 log2 nFC BLM/EL244 vs BLM: 1.14
DEG Zmynd10, nFC: normalised fold change
  Zmynd10 log2 nFC BLM/EL244 vs BLM: 1.28
DEG Zranb3
  log2 nFC BLM/EL244 vs BLM: -1.43
DEG Zwilch
  log2 nFC BLM/EL244 vs BLM: -1.54
[1]
  1810010H24Rik log2 nFC: 0.90
  1810010H24Rik nFC: 1.87
  Abca8a log2 nFC: 0.75
  Abca8a nFC: 1.68
  Abi3bp log2 nFC: 1.00
  Abi3bp nFC: 2.00
  Acbd4 log2 nFC: 0.86
  Acbd4 nFC: 1.81
  Adgrf5 log2 nFC: 0.68
  Adgrf5 nFC: 1.60
  Adh7 log2 nFC: 1.02
  Adh7 nFC: 2.02
  Aldh1a1 log2 nFC: 0.78
  Aldh1a1 nFC: 1.71
  Ankrd44 log2 nFC: 0.84
  Ankrd44 nFC: 1.79
  Aox3 log2 nFC: 1.07
  Aox3 nFC: 2.09
  Ar log2 nFC: 1.04
  Ar nFC: 2.06
  Arhgef28 log2 nFC: 0.76
  Arhgef28 nFC: 1.70
  Arhgef38 log2 nFC: 0.87
  Arhgef38 nFC: 1.83
  Arl4a log2 nFC: 0.70
  Arl4a nFC: 1.63
  Atp2a3 log2 nFC: 0.83
  Atp2a3 nFC: 1.77
  Atp6v1c2 log2 nFC: 1.03
  Atp6v1c2 nFC: 2.04
  Atp7b log2 nFC: 0.95
  Atp7b nFC: 1.93
  Bcar3 log2 nFC: 0.82
  Bcar3 nFC: 1.76
  Bmp6 log2 nFC: 1.07
  Bmp6 nFC: 2.10
  Cbr2 log2 nFC: 0.91
  Cbr2 nFC: 1.88
  Ccdc153 log2 nFC: 0.79
  Ccdc153 nFC: 1.73
  Ccdc171 log2 nFC: 1.04
  Ccdc171 nFC: 2.06
  Ccl5 log2 nFC: 0.76
  Ccl5 nFC: 1.69
  Cep85l log2 nFC: 1.02
  Cep85l nFC: 2.03

— publication PMC13198257, “An aerosolized dual-action autotaxin inhibitor-PPARγ agonist for the treatment of pulmonary fibrosis” (Cell Reports Medicine, 2026)
